Assay results: patent US12358919B2, “Antibacterial compounds” (Universita' degli Studi di Siena, priority 2019, dated 2025)

Tests used:
[1] = tested on: Acinetobacter baumannii ATCC 17978; assay: microbe, parasite or virus in culture; assay type: cell-based; settings: A. baumannii ATCC 17978
Outline: (§1)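 MICs were determined by CLSI M07 broth dilution, for each compound alone and with a fixed sub-inhibitory concentration of polymyxin E1 (colistin). Potentiation fold is the MIC alone divided by the MIC with polymyxin E.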

Escherichia coli CCUG^T = assay: microbe, parasite or virus in culture; assay type: cell-based; settings: E. coli CCUG^T
Outline: as §1

K. pneumoniae ATCC 13833 = assay: Chequerboard analysis with polymyxin E1 (average FIC index); assay type: cell-based, Klebsiella pneumoniae; settings: compound + polymyxin E1
[2] = tested on: Acinetobacter baumannii (N50 strain), multidrug-resistant clinical isolate resistant to polymyxin E1; assay: Time-kill curve analysis (bactericidal activity); assay type: cell-based; settings: compound 32 mg/L + polymyxin E1 2 mg/L
Protocol: FIG. 1: bactericidal activity on Acinetobacter baumannii (N50 strain) of polymyxin E1, 2 mg/L (square); polymyxin E1, 2 mg/L+compound Ib 32 mg/L (triangles); control (circles).
Several methods were used to investigate the synergistic activity of the compounds, including (a) the determination of the MIC in the presence of a sub-inhibitory concentration of a suitable antibacterial agent, (b) the determination of the average FICI using a chequerboard analysis and (c) the time-kill curve analysis of a suitable agent (at a sub-inhibitory concentration) in the absence and presence of the pyrazolo[4,3-b]pyridin-6-carboxamide compound at a fixed concentration of 2 or 8 mg/L.
The kinetics of bacterial killing offers an additional mean to characterize the antibacterial activity of compounds, also in combination with other antimicrobial agents. Compounds or a combination thereof are defined as bactericides when the viable bacterial load is decreased by at least 3 log10 (EUCAST, cit.).
This analysis was carried with a multidrug-resistant Acinetobacter baumannii clinical isolate showing resistance to polymyxin E1. The time-kill curves were generated starting from a bacterial inoculum of 10^5 CFU/mL. Bacterial count was determined at several time intervals in the absence (control) or presence of 2 mg/L polymyxin E1 (corresponding to the resistance breakpoint, EUCAST, cit.) supplemented with 32 mg/L of compound Ib (FIG. 1).

[3] = ratio MICcompound/MICcompound+polymyxin E

**Q.** What does the source list for `CCCCn1c(=O)c(C(=O)NC23CC4CC(CC(C4)C2)C3)c(O)c2nn(C)cc21` [Ib, N-(Adamantan-1-yl)-4-(1-butyl)-4,5-dihydro-7-hydroxy-2-methyl-5-oxo-2H-pyrazolo[4,3-b]pyridin-6-carboxamide]?
**A.** Potentiation fold [1, 3]: ≥128; MIC in presence of colistin ([1]; with 0.25xMIC polymyxin E1 (0.25 mg/L)): 4 µg/mL; MIC ([1]; Acinetobacter baumannii, ATCC17978, compound alone, read-out: MIC): > 512 µg/mL; Potentiation fold (Escherichia coli CCUG^T; [3]): ≥64; MIC in presence of colistin (Escherichia coli CCUG^T; with 0.25xMIC polymyxin E1 (0.12 mg/L)): 8 µg/mL; MIC (Escherichia coli CCUG^T; Escherichia coli, compound alone, read-out: MIC): > 512 µg/mL; Average FIC index (K. pneumoniae ATCC 13833): 0.30; reduction in the bacterial viable count ([2]; after 30-60 min of incubation): more than 3 log 10; viable count at subsequent time intervals ([2]; up to 24 hours): no viable could be detected
